Source: PubChem BioAssay (NCI)
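Each compound was tested at five concentrations against cells in 96-well plates for 48 hours. TGI: concentration producing complete growth inhibition.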

system: COLO 205 colon; experiment: growth of human tumour cells (NCI), 48 h

**Q.** For `CCCCCC(C(O)C#N)C(O)(C(F)(F)F)C(F)(F)F` (configuration not stated), which TGI is on record?
**A.** > 10 µM

**Q.** How did the TGI turn out when `CC/C=C\C/C=C\C/C=C\CCCCCCCC(=O)OC(COC(=O)CCCCCCCCCCCCCCCCC)COC1OC(CO)C(O)C(O)C1O` (configuration not stated) was run?
**A.** > 25 µM

**Q.** For `CC12CCC(C/C1=N\NC(N)=O)C2(C)C` (configuration not stated), which TGI is on record?
**A.** > 100 µM

**Q.** `COC(=O)C1=C(C)N2[C@H](C(=O)O)CS[C@@]2(C)[C@H](C(=O)OC)[C@H]1c1cccc([N+](=O)[O-])c1` was tested. Which TGI did it give?
**A.** > 100 µM

system: DU-145 prostate; experiment: growth of human tumour cells (NCI), 48 h

**Q.** With `CCN(CC)C(=S)SS(=O)(=O)c1ccc(C)cc1` as the compound, how does the TGI read?
**A.** > 100 µM

**Q.** `C[C@@H]1C(=O)CC2(O)[C@@]13C[C@@H](OC(=O)[C@@H]3O)[C@@H](C)[C@@]21COC1=O` (some centres not stated) was tested. Which TGI did it give?
**A.** > 100 µM

**Q.** How did the TGI turn out when `COc1ccc(/C(C)=N/NC(=S)N(C)C)c(O)c1` was run?
**A.** > 100 µM

**Q.** With `CCCCCC(C(O)C#N)C(O)(C(F)(F)F)C(F)(F)F` (configuration not stated) as the compound, how does the TGI read?
**A.** > 10 µM

**Q.** With `CC/C=C\C/C=C\C/C=C\CCCCCCCC(=O)OC(COC(=O)CCCCCCCCCCCCCCCCC)COC1OC(CO)C(O)C(O)C1O` (configuration not stated) as the compound, how does the TGI read?
**A.** > 25 µM

**Q.** Which TGI does the source give for `CC12CCC(C/C1=N\NC(N)=O)C2(C)C` (configuration not stated) here?
**A.** > 100 µM

**Q.** How did the TGI turn out when `COC(=O)C1=C(C)N2[C@H](C(=O)O)CS[C@@]2(C)[C@H](C(=O)OC)[C@H]1c1cccc([N+](=O)[O-])c1` was run?
**A.** > 100 µM

**Q.** Which TGI does the source give for `COC(=O)C(CCCCNC(=O)CNC(=O)OCc1ccccc1)NC(=O)C(CCCCNC(=O)CNC(=O)OCc1ccccc1)NC(=O)OCc1ccccc1` (configuration not stated) here?
**A.** > 100 µM

system: EKVX NSCLC; experiment: growth of human tumour cells (NCI), 48 h

**Q.** How did the TGI turn out when `CCN(CC)C(=S)SS(=O)(=O)c1ccc(C)cc1` was run?
**A.** > 100 µM

**Q.** How did the TGI turn out when `C[C@@H]1C(=O)CC2(O)[C@@]13C[C@@H](OC(=O)[C@@H]3O)[C@@H](C)[C@@]21COC1=O` (some centres not stated) was run?
**A.** > 100 µM

**Q.** Which TGI does the source give for `COc1ccc(/C(C)=N/NC(=S)N(C)C)c(O)c1` here?
**A.** > 100 µM

**Q.** How did the TGI turn out when `CC/C=C\C/C=C\C/C=C\CCCCCCCC(=O)OC(COC(=O)CCCCCCCCCCCCCCCCC)COC1OC(CO)C(O)C(O)C1O` (configuration not stated) was run?
**A.** > 25 µM

**Q.** With `CC12CCC(C/C1=N\NC(N)=O)C2(C)C` (configuration not stated) as the compound, how does the TGI read?
**A.** > 100 µM

**Q.** Which TGI does the source give for `COC(=O)C1=C(C)N2[C@H](C(=O)O)CS[C@@]2(C)[C@H](C(=O)OC)[C@H]1c1cccc([N+](=O)[O-])c1` here?
**A.** > 100 µM

system: HCC-2998 colon; experiment: growth of human tumour cells (NCI), 48 h

**Q.** For `CCN(CC)C(=S)SS(=O)(=O)c1ccc(C)cc1`, which TGI is on record?
**A.** > 100 µM

**Q.** `C[C@@H]1C(=O)CC2(O)[C@@]13C[C@@H](OC(=O)[C@@H]3O)[C@@H](C)[C@@]21COC1=O` (some centres not stated) was tested. Which TGI did it give?
**A.** > 100 µM

**Q.** For `COc1ccc(/C(C)=N/NC(=S)N(C)C)c(O)c1`, which TGI is on record?
**A.** > 100 µM

**Q.** How did the TGI turn out when `CCCCCC(C(O)C#N)C(O)(C(F)(F)F)C(F)(F)F` (configuration not stated) was run?
**A.** > 10 µM

**Q.** Which TGI does the source give for `CC/C=C\C/C=C\C/C=C\CCCCCCCC(=O)OC(COC(=O)CCCCCCCCCCCCCCCCC)COC1OC(CO)C(O)C(O)C1O` (configuration not stated) here?
**A.** > 25 µM

**Q.** For `COC(=O)C1=C(C)N2[C@H](C(=O)O)CS[C@@]2(C)[C@H](C(=O)OC)[C@H]1c1cccc([N+](=O)[O-])c1`, which TGI is on record?
**A.** > 100 µM

**Q.** Which TGI does the source give for `COC(=O)C(CCCCNC(=O)CNC(=O)OCc1ccccc1)NC(=O)C(CCCCNC(=O)CNC(=O)OCc1ccccc1)NC(=O)OCc1ccccc1` (configuration not stated) here?
**A.** > 100 µM

system: HCT-116 colon; experiment: growth of human tumour cells (NCI), 48 h

**Q.** Which TGI does the source give for `C[C@@H]1C(=O)CC2(O)[C@@]13C[C@@H](OC(=O)[C@@H]3O)[C@@H](C)[C@@]21COC1=O` (some centres not stated) here?
**A.** > 100 µM

**Q.** For `COc1ccc(/C(C)=N/NC(=S)N(C)C)c(O)c1`, which TGI is on record?
**A.** > 100 µM

**Q.** For `CCCCCC(C(O)C#N)C(O)(C(F)(F)F)C(F)(F)F` (configuration not stated), which TGI is on record?
**A.** > 10 µM

**Q.** Which TGI does the source give for `CC/C=C\C/C=C\C/C=C\CCCCCCCC(=O)OC(COC(=O)CCCCCCCCCCCCCCCCC)COC1OC(CO)C(O)C(O)C1O` (configuration not stated) here?
**A.** > 25 µM

**Q.** With `CC12CCC(C/C1=N\NC(N)=O)C2(C)C` (configuration not stated) as the compound, how does the TGI read?
**A.** > 100 µM

**Q.** Which TGI does the source give for `COC(=O)C1=C(C)N2[C@H](C(=O)O)CS[C@@]2(C)[C@H](C(=O)OC)[C@H]1c1cccc([N+](=O)[O-])c1` here?
**A.** > 100 µM

**Q.** `COC(=O)C(CCCCNC(=O)CNC(=O)OCc1ccccc1)NC(=O)C(CCCCNC(=O)CNC(=O)OCc1ccccc1)NC(=O)OCc1ccccc1` (configuration not stated) was tested. Which TGI did it give?
**A.** > 100 µM

system: HCT-15 colon; experiment: growth of human tumour cells (NCI), 48 h

**Q.** For `CCN(CC)C(=S)SS(=O)(=O)c1ccc(C)cc1`, which TGI is on record?
**A.** > 100 µM

**Q.** For `C[C@@H]1C(=O)CC2(O)[C@@]13C[C@@H](OC(=O)[C@@H]3O)[C@@H](C)[C@@]21COC1=O` (some centres not stated), which TGI is on record?
**A.** > 100 µM

**Q.** `CCCCCC(C(O)C#N)C(O)(C(F)(F)F)C(F)(F)F` (configuration not stated) was tested. Which TGI did it give?
**A.** > 10 µM

**Q.** How did the TGI turn out when `CC/C=C\C/C=C\C/C=C\CCCCCCCC(=O)OC(COC(=O)CCCCCCCCCCCCCCCCC)COC1OC(CO)C(O)C(O)C1O` (configuration not stated) was run?
**A.** > 25 µM

**Q.** Which TGI does the source give for `CC12CCC(C/C1=N\NC(N)=O)C2(C)C` (configuration not stated) here?
**A.** > 100 µM

**Q.** For `COC(=O)C1=C(C)N2[C@H](C(=O)O)CS[C@@]2(C)[C@H](C(=O)OC)[C@H]1c1cccc([N+](=O)[O-])c1`, which TGI is on record?
**A.** > 100 µM

**Q.** How did the TGI turn out when `COC(=O)C(CCCCNC(=O)CNC(=O)OCc1ccccc1)NC(=O)C(CCCCNC(=O)CNC(=O)OCc1ccccc1)NC(=O)OCc1ccccc1` (configuration not stated) was run?
**A.** > 100 µM

system: HL-60(TB) leukemia; experiment: growth of human tumour cells (NCI), 48 h

**Q.** `C[C@@H]1C(=O)CC2(O)[C@@]13C[C@@H](OC(=O)[C@@H]3O)[C@@H](C)[C@@]21COC1=O` (some centres not stated) was tested. Which TGI did it give?
**A.** > 100 µM

**Q.** How did the TGI turn out when `CCCCCC(C(O)C#N)C(O)(C(F)(F)F)C(F)(F)F` (configuration not stated) was run?
**A.** > 10 µM

**Q.** How did the TGI turn out when `CC/C=C\C/C=C\C/C=C\CCCCCCCC(=O)OC(COC(=O)CCCCCCCCCCCCCCCCC)COC1OC(CO)C(O)C(O)C1O` (configuration not stated) was run?
**A.** > 25 µM

**Q.** `CC12CCC(C/C1=N\NC(N)=O)C2(C)C` (configuration not stated) was tested. Which TGI did it give?
**A.** > 100 µM

**Q.** Which TGI does the source give for `COC(=O)C(CCCCNC(=O)CNC(=O)OCc1ccccc1)NC(=O)C(CCCCNC(=O)CNC(=O)OCc1ccccc1)NC(=O)OCc1ccccc1` (configuration not stated) here?
**A.** > 100 µM

system: HOP-62 NSCLC; experiment: growth of human tumour cells (NCI), 48 h

**Q.** `CCN(CC)C(=S)SS(=O)(=O)c1ccc(C)cc1` was tested. Which TGI did it give?
**A.** 85.5 µM

**Q.** `C[C@@H]1C(=O)CC2(O)[C@@]13C[C@@H](OC(=O)[C@@H]3O)[C@@H](C)[C@@]21COC1=O` (some centres not stated) was tested. Which TGI did it give?
**A.** > 100 µM

**Q.** For `COc1ccc(/C(C)=N/NC(=S)N(C)C)c(O)c1`, which TGI is on record?
**A.** > 100 µM

**Q.** `CCCCCC(C(O)C#N)C(O)(C(F)(F)F)C(F)(F)F` (configuration not stated) was tested. Which TGI did it give?
**A.** > 10 µM

**Q.** For `CC/C=C\C/C=C\C/C=C\CCCCCCCC(=O)OC(COC(=O)CCCCCCCCCCCCCCCCC)COC1OC(CO)C(O)C(O)C1O` (configuration not stated), which TGI is on record?
**A.** > 25 µM

**Q.** How did the TGI turn out when `CC12CCC(C/C1=N\NC(N)=O)C2(C)C` (configuration not stated) was run?
**A.** > 100 µM

**Q.** `COC(=O)C1=C(C)N2[C@H](C(=O)O)CS[C@@]2(C)[C@H](C(=O)OC)[C@H]1c1cccc([N+](=O)[O-])c1` was tested. Which TGI did it give?
**A.** > 100 µM

**Q.** For `COC(=O)C(CCCCNC(=O)CNC(=O)OCc1ccccc1)NC(=O)C(CCCCNC(=O)CNC(=O)OCc1ccccc1)NC(=O)OCc1ccccc1` (configuration not stated), which TGI is on record?
**A.** > 100 µM
